{
  "source": "paper PMC8399014",
  "about": "“Design of Multifaceted Antioxidants: Shifting towards Anti-Inflammatory and Antihyperlipidemic Activity” (Molecules, 2021)",
  "key": {"[1]": {"biological_target": "T1, soybean lipoxygenase (LOX-3) (Glycine max, UniProt P09186)", "T1 sequence (P09186 1-857)": "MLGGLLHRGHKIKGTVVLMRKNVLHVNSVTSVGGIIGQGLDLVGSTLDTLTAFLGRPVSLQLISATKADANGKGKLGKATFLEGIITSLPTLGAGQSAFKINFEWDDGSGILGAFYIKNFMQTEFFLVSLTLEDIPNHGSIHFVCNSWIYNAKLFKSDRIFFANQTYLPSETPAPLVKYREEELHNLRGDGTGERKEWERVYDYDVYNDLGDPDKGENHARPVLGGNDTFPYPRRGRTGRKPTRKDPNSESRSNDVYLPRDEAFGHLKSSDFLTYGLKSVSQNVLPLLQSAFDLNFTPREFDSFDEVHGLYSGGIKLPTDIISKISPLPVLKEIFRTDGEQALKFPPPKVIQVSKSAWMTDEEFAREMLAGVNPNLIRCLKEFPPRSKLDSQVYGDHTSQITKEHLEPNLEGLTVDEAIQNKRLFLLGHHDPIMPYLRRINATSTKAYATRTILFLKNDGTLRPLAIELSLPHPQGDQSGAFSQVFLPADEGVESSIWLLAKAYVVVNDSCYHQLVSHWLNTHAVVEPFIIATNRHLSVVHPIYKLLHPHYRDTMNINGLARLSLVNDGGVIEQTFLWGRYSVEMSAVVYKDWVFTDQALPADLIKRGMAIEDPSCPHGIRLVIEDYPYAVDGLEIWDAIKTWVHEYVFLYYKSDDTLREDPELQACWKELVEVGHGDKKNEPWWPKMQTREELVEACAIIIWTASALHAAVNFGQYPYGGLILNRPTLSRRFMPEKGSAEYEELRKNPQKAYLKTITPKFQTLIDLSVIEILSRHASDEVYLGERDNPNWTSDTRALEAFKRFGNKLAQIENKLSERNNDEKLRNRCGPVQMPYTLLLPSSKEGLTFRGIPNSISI", "experiment": "Soybean lipoxygenase (LOX-3) inhibition", "type": "biochemical", "conditions": "for LOX-3 inhibitory activity (in words): parent antioxidants", "protocol": "The anti-inflammatory effect of the synthesized compounds was initially evaluated in vitro, via their ability to inhibit soybean lipoxygenase (LOX-3).\nLipoxygenase activity was determined using soybean lipoxygenase (250 U/mL) and sodium linoleate (100 μM) as substrate, in Tris–HCl buffer pH 9.0. The test compounds dissolved in methanol were added and the reaction was monitored for 5 min at 28 °C, recording absorbance at 234 nm."}, "[2]": {"tested_on": "carrageenan-induced mouse paw edema", "experiment": "Carrageenan-induced mouse paw edema", "type": "in vivo", "conditions": "for inhibition in vivo at 300 µmol/kg: Mus musculus, ip, 0.30 mmol/kg i.p., 3.5 h after carrageenan, mean of 6 animals, read-out: % Edema Reduction", "procedure": "In vivo anti-inflammatory activity of the synthesized compounds was evaluated as mouse paw edema reduction. Paw edema was induced by subcutaneous injection of a 2% carrageenan suspension in the right paw of mice, the left serving as the control. The activity of the tested compounds (at 0.30 mmol/kg of body weight, i.p.), expressed as % reduction in paw edema 3.5 h after carrageenan injection, is shown in Table 2. […] Moreover, compounds 9 and 10 (antioxidant derivatives of mefenamic acid) caused a 1.5–2-fold improvement in edema reduction compared to that of the parent mefenamic acid (i).\nFor the in vivo anti-inflammatory activity, Wistar male rats or C57BL/6 mice were injected with 0.025 mL carrageenan (2% w/v solution in saline) i.d. into the right hind paw, with the left paw serving as the control. The test compounds (300 μmol/kg) were given, i.p., after the carrageenan injection, and 3.5 h later, the produced edema was estimated as the paw weight increase. Results are expressed as percentage of the reduction in paw edema and are the means for six animals (per compound)."}, "[3]": {"experiment": "Radical scavenging of DPPH", "conditions": "DPPH 200 μM, after incubation for 30 min", "procedure": "The antioxidant activity of compounds 1–17 was evaluated via their ability to scavenge the free radical DPPH.\nCompounds dissolved in absolute methanol at concentrations of 25–400 μM were added to an equal volume of a methanolic solution of DPPH (final concentration 200 μM) at room temperature (22 ± 2 °C). Absorbance (517 nm) was recorded at different time intervals for 1 h and results were expressed as IC50 (μM) for DPPH after incubation for 30 min [3]."}, "[4]": {"tested_on": "rat/mouse microsomal lipid peroxidation", "experiment": "Inhibition of microsomal lipid peroxidation", "type": "biochemical, C57BL/6 mice", "conditions": "after 45 min of incubation; read-out: IC50 against microsomal lipid peroxidation", "procedure": "The antioxidant effect of the new compounds, as well as their parent compounds was also evaluated by the protection offered against rat/mouse microsomal lipid peroxidation.\nThe incubation mixture contained heat-inactivated (90 °C for 90 s) liver microsomal fraction from untreated C57BL/6 mice (corresponding to 2.5 mg of hepatic protein per milliliter or 4 mM fatty acid residues), ascorbic acid (0.2 mM) in Tris–HCl/KCl buffer (50 mM/ 150 mM, pH 7.4), and the studied compounds dissolved in dimethyl sulfoxide (in different concentrations). The reaction was initiated by the addition of a freshly prepared FeSO4 solution (10 μM), and the mixture was incubated at 37 °C for 45 min. Aliquots were taken at various time intervals and lipid peroxidation was assessed by the spectrophotometric (535 against 600 nm) determination of the produced 2-thiobarbituric acid reactive material."}, "[5]": {"tested_on": "carrageenan-induced mouse paw edema", "conditions": "cited from earlier work"}, "[6]": {"tested_on": "experimentally induced hyperlipidemic mouse model", "experiment": "Tyloxapol (Triton WR 1339)-induced hyperlipidemia", "type": "in vivo, mice", "conditions": "84 μmol/kg i.p.; 24 h after tyloxapol", "procedure": "Acute hyperlipidemia was achieved, i.p., by the administration of tyloxapol (Triton WR 1339). The antihyperlipidemic effect of the tested compounds was evaluated as the decrease in total cholesterol (TC) and triglyceride (TG) levels in plasma 24 h after tyloxapol administration. The results are shown in Figure 4A,B. Compounds 9 and 10 reduced TC levels in plasma by 73% and 50%, respectively, and TG levels by 76% and 41%, respectively.\nAn aqueous solution of Triton WR 1339 was given, i.p., to mice (400 mg/kg of body weight) and one hour later the test compounds (84 μmol/kg of body weight), dissolved in saline or saline only were administered, i.p. After 24 h, blood was taken from the aorta/heart and used for the determination of plasma total cholesterol (TC) and triglyceride (TG) levels, using commercially available kits. Levels of plasma lipids were determined in duplicate while the values presented were the mean from eight animals (per compound)."}, "[7]": {"tested_on": "rat/mouse microsomal lipid peroxidation", "parameters": "method as in doi:10.1002/(SICI)1098-2299(199905)47:1<9::AID-DDR2>3.0.CO", "conditions": "after 45 min of incubation; read-out: IC50 against microsomal lipid peroxidation; cited from earlier work"}, "[8]": {"conditions": "after 5 min of incubation, sodium linoleate 100 μM, pH 9.0, read-out: IC50 Value on LOX-3"}},
  "note": "pIC50: −log10 of the molar value. Where two headings read alike, the source gives them in different places. Marks after values point to notes of the source that are not given here.",
  "data": [
    {"smiles": "CC(C)(C)c1cc(C(=O)O)cc(C(C)(C)C)c1O", "note": "[BHB, 3,5-di-tert-butyl-4-hydroxybenzoic acid, reference compound]", "values": [
      {"measurement": "LOX-3 inhibitory activity (in words)", "setting": "[1]", "value": "little or no inhibitory activity"},
      {"measurement": "inhibition in vivo at 300 µmol/kg", "setting": "[2]", "value": 53, "unit": "%"},
      {"measurement": "pIC50", "setting": "[3]", "value": 4.51},
      {"measurement": "pIC50", "setting": "[4]", "value": 3.59}
    ]},
    {"smiles": "CC(C)(C)c1cc(CO)cc(C(C)(C)C)c1O", "note": "[BHBA, 3,5-di-tert-butyl-4-hydroxybenzyl alcohol, reference compound]", "values": [
      {"measurement": "LOX-3 inhibitory activity (in words)", "setting": "[1]", "value": "little or no inhibitory activity"},
      {"measurement": "inhibition in vivo at 300 µmol/kg", "setting": "[2]", "value": 71, "unit": "%"},
      {"measurement": "pIC50", "setting": "[3]", "value": 3.80},
      {"measurement": "pIC50", "setting": "[4]", "value": 5.00}
    ]},
    {"smiles": "COc1ccc2cc(C(C)C(=O)OCc3cc(C(C)(C)C)c(O)c(C(C)(C)C)c3)ccc2c1", "note": "(stereo not drawn) [Compound 3, 3,5-di-tert-butyl-4-hydroxybenzyl 2-(6-methoxynaphthalen-2-yl)propanoate]", "values": [
      {"measurement": "pIC50", "setting": "[1]; [8]", "value": 4.39},
      {"measurement": "melting point", "value": "85 to 86", "unit": "°C"},
      {"measurement": "% Edema Reduction", "setting": "[5]; 0.15 mmol/kg i.p.", "value": "78**^a [11] %"}
    ]},
    {"smiles": "Cc1cccc(Nc2ccccc2C(=O)OCc2cc(C(C)(C)C)c(O)c(C(C)(C)C)c2)c1C", "note": "[Compound 9, 3,5-di-tert-butyl-4-hydroxybenzyl 2-((2,3-dimethylphenyl)amino)benzoate]", "values": [
      {"measurement": "pIC50", "setting": "[1]; [8]", "value": 3.97},
      {"measurement": "inhibition in vivo at 300 µmol/kg", "setting": "[2]", "value": 63, "unit": "%"},
      {"measurement": "improvement in edema reduction", "setting": "[2]; compared to parent mefenamic acid (i)", "value": "1.5–2 fold"},
      {"measurement": "pIC50", "setting": "[4]", "value": 5.30},
      {"measurement": "reduction of total cholesterol (TC) levels in plasma", "setting": "[6]", "value": 73, "unit": "%"},
      {"measurement": "reduction of triglyceride (TG) levels in plasma", "setting": "[6]", "value": 76, "unit": "%"}
    ]},
    {"smiles": "Cc1c(C)c2c(c(C)c1O)CCC(C)(C(=O)O)O2", "note": "(stereo not drawn) [Trolox, 6-hydroxy-2,5,7,8-tetramethylchromane-2-carboxylic acid, reference compound]", "values": [
      {"measurement": "LOX-3 inhibitory activity (in words)", "setting": "[1]", "value": "little or no inhibitory activity"},
      {"measurement": "inhibition in vivo at 300 µmol/kg", "setting": "[2]", "value": 46, "unit": "%"},
      {"measurement": "pIC50", "setting": "[3]", "value": 4.48},
      {"measurement": "pIC50", "setting": "[4]", "value": 4.60}
    ]},
    {"smiles": "COc1ccc2cc([C@H](C)C(=O)O)ccc2c1", "note": "[c, Naproxen, reference compound]", "values": [
      {"measurement": "pIC50", "setting": "[1]", "value": 4.60},
      {"measurement": "% Edema Reduction", "setting": "[5]; 0.30 mmol/kg i.p.", "value": "51** [11] %"}
    ]},
    {"smiles": "Cc1c(Cl)cccc1Nc1ccccc1C(=O)O", "note": "[e, Tolfenamic acid]", "values": [
      {"measurement": "% Edema Reduction", "setting": "[5]; 0.30 mmol/kg i.p.", "value": "60*** [5] %"},
      {"measurement": "pIC50", "setting": "[7]", "value": 3.60}
    ]},
    {"smiles": "Cc1cccc(Nc2ccccc2C(=O)O)c1C", "note": "[i, Mefenamic acid, reference compound]", "values": [
      {"measurement": "inhibition in vivo at 300 µmol/kg", "setting": "[2]", "value": 35, "unit": "%"},
      {"measurement": "pIC50", "setting": "[7]", "value": 3.89}
    ]}
  ]
}
